Patent US10450263B2, “Benzo annulenes as antiviral agents” (Southern Research Institute, priority 2017, dated 2019)

Experiments:
Chikungunya virus = experiment: Evaluation of antiviral activity against Chikungunya virus (EC90); type: cell-based; conditions: Chikungunya virus, read-out: EC90 (μM) CHIKV, concentration required for 90% inhibition of CHIKV
Excerpt: EC90 refers to the concentration of the compound that is required for 90% antagonism or inhibition of CHIKV. EC90 also refers to the concentration of a substance that is required for 90% antagonism or inhibition of CHIKV in vivo.
(§1) The compounds below in Table 1 were synthesized with methods identical or analogous to those described herein. The requisite starting materials were commercially available, described in the literature, or readily synthesized by one skilled in the art of organic synthesis.

[1] = CC50 reported alongside the CHIKV antiviral assay (cytotoxicity); type: cell-based; conditions: cell line not given
Excerpt: as §1

In the case of `COc1cc2c(cc1NC(=O)C1CCOCC1)CCCCC2` [Compound 82, N-(3-methoxy-6,7,8,9-tetrahydro-5H-benzo[7]annulen-2-yl)tetrahydro-2H-pyran-4-carboxamide], the EC90 (Chikungunya virus) is reported as over 10 µM and the CC50 [1] is reported as over 30 µM.
For `COc1cc2c(cc1NC(=O)c1ccccc1)CCCCC2` [Compound 83, N-(3-methoxy-6,7,8,9-tetrahydro-5H-benzo[7]annulen-2-yl)benzamide], the EC90 (Chikungunya virus) was over 10 µM and the CC50 [1] was over 30 µM.
Compound `CCOc1cc2c(cc1NC(=O)c1ccc(C(C)(C)C)cc1)CCCCC2` [Compound 84, 4-(tert-Butyl)-N-(3-ethoxy-6,7,8,9-tetrahydro-5H-benzo[7]annulen-2-yl)benzamide] has an EC90 (Chikungunya virus) of 5.19 µM and a CC50 [1] of 10 µM.
Compound `CC(C)(C)c1ccc(C(=O)Nc2cc3c(cc2OCc2ccccn2)CCCCC3)cc1` [Compound 85, 4-(tert-Butyl)-N-(3-(pyridin-2-ylmethoxy)-6,7,8,9-tetrahydro-5H-benzo[7]annulen-2-yl)benzamide] has an EC90 (Chikungunya virus) of over 10 µM and a CC50 [1] of 9.4 µM.
For `CCCOc1cc2c(cc1NC(=O)c1ccc(C(C)(C)C)cc1)CCCCC2` [Compound 86, 4-(tert-Butyl)-N-(3-propoxy-6,7,8,9-tetrahydro-5H-benzo[7]annulen-2-yl)benzamide], the EC90 (Chikungunya virus) was 7 µM and the CC50 [1] was over 30 µM.
`CC(C)(C)c1ccc(C(=O)Nc2ccc3c(c2OC(F)(F)F)CCCCC3)cc1` [Compound 87, 4-(tert-butyl)-N-(1-(trifluoromethoxy)-6,7,8,9-tetrahydro-5H-benzo[7]annulen-2-yl)benzamide] gave an EC90 (Chikungunya virus) of 19.5 µM and a CC50 [1] of over 30 µM.
In the case of `COc1cc2c(cc1NC(=O)c1cc(F)c(C(C)(C)C)c(F)c1)CCCCC2` [Compound 90, 4-(tert-butyl)-3,5-difluoro-N-(3-methoxy-6,7,8,9-tetrahydro-5H-benzo[7]annulen-2-yl)benzamide], the EC90 (Chikungunya virus) is reported as 3.3 µM and the CC50 [1] is reported as over 30 µM.
